Oligonucleotides are written 5' to 3', each unit as a sugar letter and its base; * is a phosphorothioate linkage, no mark a phosphodiester; rarer units and linkages stand in square brackets, end groups in braces. Plain capitals give the bases only. r = 2'-OH (RNA); f = 2'-fluoro
T1: recombinant chymase (expressed by yeast) (Homo sapiens, UniProt P23946)
T1 construct: purchased SIGMA; host or cells: yeast
T1 sequence (P23946 22-247): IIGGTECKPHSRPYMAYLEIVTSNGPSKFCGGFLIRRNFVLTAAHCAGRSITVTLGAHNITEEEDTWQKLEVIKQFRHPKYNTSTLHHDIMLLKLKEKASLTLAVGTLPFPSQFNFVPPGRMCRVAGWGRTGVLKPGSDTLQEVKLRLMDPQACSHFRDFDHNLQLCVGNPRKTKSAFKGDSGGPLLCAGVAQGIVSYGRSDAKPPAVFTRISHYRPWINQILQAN


Target: T1, recombinant chymase (expressed by yeast)
Experiment: Chymase inhibitory activity using angiotensin I as substrate, recombinant chymase
Format: biochemical
Details: final 50 μM, chymase 0.2-0.5 nM, 37° C. 90 min, one measurement
Method: A second method of evaluation employs a native substrate. A useful native substrate for chymase is angiotensin I. Here, His-Leu, a peptide fragment released upon degradation of angiotensin I, is fluorescently derivatized, and the fluorescence intensity therefrom is quantified.
In the assay, an enzyme reaction is carried out in 50 μL of solution C. First, 0.3-0.75 ng of chymase (recombinant, manufactured by SIGMA; or native, manufactured by Calbiochem) is diluted in solution C to obtain 5 μL chymase solution. Each nucleic acid is prepared in solution C to obtain 25 μL solutions. 5 μL of each chymase dilution and 25 μL of each nucleic acid solution are mixed, and then the mixture is incubated at 37° C. for 5 minutes. […] The angiotensin I solution is added to the mixture of chymase and nucleic acid, and the enzyme reaction is initiated. After the reaction was allowed to proceed at 37° C. for 90 minutes, 25 μL of ice-cooled 30% trichloroacetic acid solution is added to terminate the reaction. The entire mixture is centrifuged at 4° C., 14000 rpm for 10 minutes, and 30 μL of the resulting supernatant is used for the subsequent reaction for fluorescent derivatization.
After 30 μL of the supernatant is added to a 96-well plate (Black, manufactured by Costar), 15 μL of 2% o-phthalaldehyde (manufactured by SIGMA) solution in methanol and 170 μL of 0.3M NaOH solution are mixed in each well, and the plate is allowed to stand at room temperature for 10 minutes. Subsequently, 25 μL of 3M HCl solution is added to terminate the reaction. The plate is set to the microplate reader SpectraMax190 (manufactured by Molecular Devices Corporation), and the fluorescence intensity is determined at an excitation wavelength of 355 nm and a fluorescence wavelength of 460 nm.
For control, samples are treated and analyzed in the same manner in two cases: use of SEQ ID NO: 58 (negative control) and use of chymostatin, a known chymotrypsin-like serine protease inhibitor (positive control). In both cases, fluorescence intensity obtained at 0 minute reaction time serves as a blank determination. Taking the fluorescence intensity detected with the addition of an equal volume of solution C, in place of each nucleic acid, in the chymase enzyme reaction as 100%, the inhibitory rate for each test substance is calculated, and the inhibitor concentration required to cause a 50% inhibition of the enzyme activity (IC50) is determined.
For further assessment of the inhibitory activity of the nucleic acid of the present invention, the enzyme activity of chymase was measured using angiotensin I, which is a native substrate for chymase, according to the following method. Angiotensin I is converted by chymase to angiotensin II, during which a peptide fragment His-Leu is released. Since the peptide His-Leu is fluorescently derivatized by o-phthalaldehyde, its fluorescence intensity can be quantitatively measured.
The total volume of solution for an enzyme reaction in the assay was set to 50 μL, and the reaction was performed in solution C buffer. First, 0.3-0.75 ng of chymase (recombinant, (manufactured by SIGMA) or native (manufactured by Calbiochem)) was diluted with solution C to give 5 μL thereof. Here, the recombinant is chymase expressed by yeast, and the native is chymase purified from human skin mast cell. The nucleic acid was serially diluted with solution C at a concentration of 0.0027-2 μM to give 25 μL thereof. The chymase solution (5 μL) and the nucleic acid solution (25 μL) were mixed, and the mixture was incubated at 37° C. for 5 min. On the other hand, […] angiotensin I (manufactured by PEPTIDE INSTITUTE, INC.) was prepared in solution C to give […] thereof, which was incubated at 37° C. for 5 min. The angiotensin I solution was added to a mixture of chymase and nucleic acid to start an enzyme reaction. The final chymase concentration of the reaction solution was 0.2-0.5 nM, and the final substrate concentration was 50 μM. […]

Molecule	IC50 [nM]
53 (GGGUAACUAUGGUUAGAUAGAGUUAAAAACCAUAGAAGACCC; 2'-fluoro at CU, RNA at AG, backbone not given here) [compound 53]	446
54 (UAACUAUGGUUAGAUAGAGUUAAAAACCAUAGAAGA; 2'-fluoro at CU, RNA at AG, backbone not given here) [compound 54]	397
55 (CUAUGGUUAGAUAGAGUUAAAAACCAUAG; 2'-fluoro at CU, RNA at AG, backbone not given here) [compound 55]	354
56 (GGGUUAGAUAGAGUUAAAAACCC; 2'-fluoro at CU, RNA at AG, backbone not given here) [compound 56]	235
65 (rGrGfCrArGrAfUrArGrArGfUfUrArArArGfCfC) [compound 65]	274
70 (GGGTTAGAUAGAGUUAAAAACCC; chemistry not given here) [compound 70]	239
71 (GGGUUAGAUAGAGTUAAAAACCC; chemistry not given here) [compound 71]	161
72 (GGGTTAGAUAGAGTUAAAAACCC; chemistry not given here) [compound 72]	65
CC(C)C[C@H](NC(=O)[C@@H](NC(=O)N[C@@H](Cc1ccccc1)C(=O)O)[C@@H]1CCN=C(N)N1)C(=O)N[C@H](C=O)Cc1ccccc1 [chymostatin, reference compound]	450 to 600
GGGU(F)U(F)GAAGAU(F)AU(F)U(F)AAAGAAC(F)C(F)C(F) (GGGUUGAAGAUAUUAAAGAACCC; 2'-fluoro at CU, RNA at AG, backbone not given here) [SEQ ID NO: 58]	> 1000
13 (nucleic acid, aptamer) rGrGrGrAfCrGrGfUrArGrGrArAfUfUfCfCrGfCrArAfCfCrAfUfCfCfCrGfUrArAfCfUrAfUrGrGfUfUrArGrAfUrArGrArGfUfUrArArArArAfCfCrAfUrArGrArArGrArGfCrGrGfCfCrGfC	41
14 (nucleic acid, aptamer) rGrGrGrAfCrGrGfUrArGrGrArAfUfUfCfUfCrGfUfUfCfCfUrGrAfCrArGfCrAfUfUfUrGrArGrAfUrArGrAfUfUfUrArArAfCrArArAfCrGfCrAfCrAfUrArGrArArGrArGfCrGrGfCfCrGfC	22
4 (nucleic acid, aptamer) rGrGrGrAfCrGrGfUrArGrGrArAfUfUfCrGfUfCfCrAfUfUfCfUrAfCrArGrAfUrArGrArGrAfUrArArArGfUrArGrArAfUfUfUrArAfCrArArArAfCrAfUrArGrArArGrArGfCrGrGfCfCrGfC	3
